# In PubChem BioAssay (NCI):
#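 Compound exposure: 48 hours, 5 concentrations, 96-well plates. TGI denotes the concentration required for complete inhibition of growth.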
# Columns and labels:
# Experiment in all cases: NCI anticancer screen, dose series, 48 h
# 786-0 renal = tested on: 786-0 renal
# A498 renal = tested on: A498 renal
# A549 NSCLC = tested on: A549 NSCLC
# ACHN renal = tested on: ACHN renal
# CAKI-1 renal = tested on: CAKI-1 renal
# CCRF-CEM leukemia = tested on: CCRF-CEM leukemia
# COLO 205 colon = tested on: COLO 205 colon
# DLD-1 colon = tested on: DLD-1 colon
# DMS 114 small cell lung = tested on: DMS 114 small cell lung
# DMS 273 small cell lung = tested on: DMS 273 small cell lung
# EKVX NSCLC = tested on: EKVX NSCLC
# HCC-2998 colon = tested on: HCC-2998 colon
# HCT-116 colon = tested on: HCT-116 colon
# HCT-15 colon = tested on: HCT-15 colon
# HL-60(TB) leukemia = tested on: HL-60(TB) leukemia
# HOP-18 NSCLC = tested on: HOP-18 NSCLC
# HOP-62 NSCLC = tested on: HOP-62 NSCLC
# HOP-92 NSCLC = tested on: HOP-92 NSCLC
# HT29 colon = tested on: HT29 colon
# IGROV1 ovarian = tested on: IGROV1 ovarian
# K-562 leukemia = tested on: K-562 leukemia
# KM12 colon = tested on: KM12 colon
# KM20L2 colon = tested on: KM20L2 colon
# LOX IMVI melanoma = tested on: LOX IMVI melanoma
# LXFL 529 NSCLC = tested on: LXFL 529 NSCLC
# M14 melanoma = tested on: M14 melanoma
# MALME-3M melanoma = tested on: MALME-3M melanoma
# MOLT-4 leukemia = tested on: MOLT-4 leukemia
# NCI-H23 lung = tested on: NCI-H23 lung
# NCI-H460 lung = tested on: NCI-H460 lung
# NCI-H522 lung = tested on: NCI-H522 lung
# OVCAR-3 ovarian = tested on: OVCAR-3 ovarian
# OVCAR-4 ovarian = tested on: OVCAR-4 ovarian
# OVCAR-5 ovarian = tested on: OVCAR-5 ovarian
# OVCAR-8 ovarian = tested on: OVCAR-8 ovarian
# RPMI-8226 leukemia = tested on: RPMI-8226 leukemia
# RXF 393 renal = tested on: RXF 393 renal
# SF-268 CNS = tested on: SF-268 CNS
# SF-295 CNS = tested on: SF-295 CNS
# SF-539 CNS = tested on: SF-539 CNS
# SK-MEL-2 melanoma = tested on: SK-MEL-2 melanoma
# SK-MEL-28 melanoma = tested on: SK-MEL-28 melanoma
# SK-MEL-5 melanoma = tested on: SK-MEL-5 melanoma
# SK-OV-3 ovarian = tested on: SK-OV-3 ovarian
# SN12C renal = tested on: SN12C renal
# SNB-19 CNS = tested on: SNB-19 CNS
# SNB-75 CNS = tested on: SNB-75 CNS
# SNB-78 CNS = tested on: SNB-78 CNS
# SW-620 colon = tested on: SW-620 colon
# TK-10 renal = tested on: TK-10 renal
# U251 CNS = tested on: U251 CNS
# UACC-257 melanoma = tested on: UACC-257 melanoma
# UACC-62 melanoma = tested on: UACC-62 melanoma
# UO-31 renal = tested on: UO-31 renal
# M19-MEL melanoma = tested on: M19-MEL melanoma
# NCI-H226 lung = tested on: NCI-H226 lung
smiles,measurement,setting,value
O=C(c1ccccc1)C(c1ccccc1)C1(O)C(=O)Nc2c(Cl)ccc(Cl)c21 (centres undefined),TGI,786-0 renal,39.9 µM
same,TGI,A498 renal,64.6 µM
same,TGI,A549 NSCLC,> 69.1 µM
same,TGI,ACHN renal,31.7 µM
same,TGI,CAKI-1 renal,39.8 µM
same,TGI,CCRF-CEM leukemia,46.6 µM
same,TGI,COLO 205 colon,38.5 µM
same,TGI,DLD-1 colon,35 µM
same,TGI,DMS 114 small cell lung,37.2 µM
same,TGI,DMS 273 small cell lung,42.9 µM
same,TGI,EKVX NSCLC,32.6 µM
same,TGI,HCC-2998 colon,77.7 µM
same,TGI,HCT-116 colon,31 µM
same,TGI,HCT-15 colon,36.2 µM
same,TGI,HL-60(TB) leukemia,38.5 µM
same,TGI,HOP-18 NSCLC,49.3 µM
same,TGI,HOP-62 NSCLC,49.8 µM
same,TGI,HOP-92 NSCLC,35.4 µM
same,TGI,HT29 colon,47.1 µM
same,TGI,IGROV1 ovarian,42.7 µM
same,TGI,K-562 leukemia,35 µM
same,TGI,KM12 colon,50.5 µM
same,TGI,KM20L2 colon,> 100 µM
same,TGI,LOX IMVI melanoma,28 µM
same,TGI,LXFL 529 NSCLC,31.2 µM
same,TGI,M14 melanoma,30.7 µM
same,TGI,MALME-3M melanoma,31.3 µM
same,TGI,MOLT-4 leukemia,49 µM
same,TGI,NCI-H23 lung,35.6 µM
same,TGI,NCI-H460 lung,56.8 µM
same,TGI,NCI-H522 lung,34.9 µM
same,TGI,OVCAR-3 ovarian,32.4 µM
same,TGI,OVCAR-4 ovarian,13.4 µM
same,TGI,OVCAR-5 ovarian,35.5 µM
same,TGI,OVCAR-8 ovarian,44.7 µM
same,TGI,RPMI-8226 leukemia,40.8 µM
same,TGI,RXF 393 renal,33.8 µM
same,TGI,SF-268 CNS,54 µM
same,TGI,SF-295 CNS,31.1 µM
same,TGI,SF-539 CNS,44.5 µM
same,TGI,SK-MEL-2 melanoma,39.5 µM
same,TGI,SK-MEL-28 melanoma,34.6 µM
same,TGI,SK-MEL-5 melanoma,34.1 µM
same,TGI,SK-OV-3 ovarian,> 60.8 µM
same,TGI,SN12C renal,31.8 µM
same,TGI,SNB-19 CNS,> 85.6 µM
same,TGI,SNB-75 CNS,39.2 µM
same,TGI,SNB-78 CNS,64 µM
same,TGI,SW-620 colon,37.9 µM
same,TGI,TK-10 renal,> 67.3 µM
same,TGI,U251 CNS,78.8 µM
same,TGI,UACC-257 melanoma,29.9 µM
same,TGI,UACC-62 melanoma,33.8 µM
same,TGI,UO-31 renal,39.1 µM
O=C1/C(=N\O)C2CCC1C2 (centres undefined),TGI,786-0 renal,> 100 µM
same,TGI,A498 renal,> 100 µM
same,TGI,A549 NSCLC,> 100 µM
same,TGI,ACHN renal,> 100 µM
same,TGI,CAKI-1 renal,> 100 µM
same,TGI,CCRF-CEM leukemia,> 100 µM
same,TGI,COLO 205 colon,> 100 µM
same,TGI,DMS 114 small cell lung,> 100 µM
same,TGI,DMS 273 small cell lung,> 100 µM
same,TGI,EKVX NSCLC,> 100 µM
same,TGI,HCC-2998 colon,> 100 µM
same,TGI,HCT-116 colon,> 100 µM
same,TGI,HCT-15 colon,> 100 µM
same,TGI,HL-60(TB) leukemia,> 100 µM
same,TGI,HOP-18 NSCLC,> 100 µM
same,TGI,HOP-62 NSCLC,> 100 µM
same,TGI,HOP-92 NSCLC,> 100 µM
same,TGI,HT29 colon,> 100 µM
same,TGI,IGROV1 ovarian,> 100 µM
same,TGI,K-562 leukemia,> 100 µM
same,TGI,KM12 colon,> 100 µM
same,TGI,KM20L2 colon,> 100 µM
same,TGI,LOX IMVI melanoma,> 100 µM
same,TGI,LXFL 529 NSCLC,> 100 µM
same,TGI,M14 melanoma,> 100 µM
same,TGI,M19-MEL melanoma,> 100 µM
same,TGI,MALME-3M melanoma,> 100 µM
same,TGI,MOLT-4 leukemia,> 100 µM
same,TGI,NCI-H226 lung,> 100 µM
same,TGI,NCI-H23 lung,> 100 µM
same,TGI,NCI-H460 lung,> 100 µM
same,TGI,NCI-H522 lung,> 100 µM
same,TGI,OVCAR-3 ovarian,> 100 µM
same,TGI,OVCAR-4 ovarian,> 100 µM
same,TGI,OVCAR-5 ovarian,> 100 µM
same,TGI,OVCAR-8 ovarian,> 100 µM
same,TGI,RPMI-8226 leukemia,> 100 µM
same,TGI,RXF 393 renal,> 100 µM
same,TGI,SF-268 CNS,> 100 µM
same,TGI,SF-295 CNS,> 100 µM
same,TGI,SF-539 CNS,> 100 µM
same,TGI,SK-MEL-2 melanoma,> 100 µM
same,TGI,SK-MEL-28 melanoma,> 100 µM
same,TGI,SK-MEL-5 melanoma,> 100 µM
same,TGI,SK-OV-3 ovarian,> 100 µM
same,TGI,SN12C renal,> 100 µM
same,TGI,SNB-19 CNS,> 100 µM
same,TGI,SNB-75 CNS,> 100 µM
same,TGI,SNB-78 CNS,> 100 µM
same,TGI,SW-620 colon,> 100 µM
same,TGI,TK-10 renal,> 100 µM
same,TGI,U251 CNS,> 100 µM
same,TGI,UACC-257 melanoma,> 100 µM
same,TGI,UACC-62 melanoma,> 100 µM
same,TGI,UO-31 renal,> 100 µM
